# Data from US20260193274A1, “AKT1 MODULATORS” (Alterome Therapeutics, Inc., priority 2022, published 2026).
# Molecular target: T1, AKT1-E17K (Homo sapiens, UniProt P31749, E17K)
# T1 construct: host or cells: HEK-293 (ATCC CRL-1573)
# Assay: NanoBRET Target Engagement (TE) Assay
# Type: cell-based
# Conditions: full length AKT E17K NanoLuc fusion in transfected HEK-293 cells; 2 hr equilibration with tracer and compound
# From the text: NanoBRET is a highly specific and validated cell-based technique for assessing target engagement (Vasta et al., 2018, Cell Chem Biol. 25(2):206-214). The NanoBRET™ Target Engagement (TE) Intracellular Kinase Assays are based on the NanoBRET™ System (Promega Corporation), an energy transfer technique designed to measure molecular proximity in living cells. The NanoBRET™ TE Assays measure the apparent affinity of test compounds by competitive displacement of the NanoBRET™ tracer compound, which is a cell permeable molecule engineered to be reversibly bound to a NanoLuc® luciferase-kinase fusion expressed in cells. For compound screening, when a test compound binds to the selected kinase, the BRET signal is attenuated. For kinase inhibitors in particular, intracellular target selectivity is fundamental to pharmacological mechanism and allows the proteins of interest to be in the correct cellular confirmation. Although non-cell-based techniques have been developed to measure kinase binding or enzymatic inhibition with accuracy and precision, such approaches can fail to accurately predict engagement of the full-length target protein in the more complex and biologically relevant cellular context (Knight and Shokat, 2005, Chem. Biol. 12, 621-637; Smyth and Collins, 2009, J. Chem. Biol. 2, 131-151). […] Briefly, HEK-293 cells (ATCC Cat #CRL-1573) were used for transfection purposes using FuGENE HD Transfection Reagent (Promega Cat #E2311). All cells were evaluated for viability prior to transfection and optimization of the transfection was done prior to experimentation. Greater than 95% viability was used for all experiments. Following transfection, cells were washed and resuspended in Opti-MEM. NanoBRET assays were performed in white, 384-well plates (Corning) at a density of 2×10^5 cells/well. All example compounds were prepared as concentrated stock solutions in DMSO (Sigma-Aldrich). Compounds are dissolved in DMSO to make 10 mM stock solution. Example compounds were transferred as 40 μL of 10 mM stock solution to a 384 pp-plate (LABCYTE, PP-0200) and diluted in 3-fold, 10-point dilution via transferring […] by Apricot liquid handler. A Labcyte ECHO 550 compound dispenser was used to facilitate compound transfer directly to cells. Cells were equilibrated for 2 hr with energy transfer probes and example compound prior to BRET measurements. The AKTE17K (Promega Cat #NV2421) as well as specific probe (NanoBRET tracer, Promega Cat #N264B) was prepared at a concentration of 20× in tracer dilution buffer (12.5 mM HEPES, 31.25% PEG-400, pH 7.5). For target engagement analysis, the energy transfer probes were added to the cells at concentrations optimized for the target in question (AKT E17K). Following compound incubation, NanoBRET NanoGlo Substrate (Promega Cat #N157D) and Extracellular Nanoluc Inhibitor (Promega Cat #N235C) was added according to the manufacturer's recommended protocol, and luminescence was measured on Envision Reader (Perkin Elmer) Multimode Luminometer equipped with 450 nmBPfilter (donor) and 600 nmLPfilter (acceptor), using 0.5 s integration time. Milli-BRET units (mBU) are calculated by multiplying the raw BRET values by 1000. Apparent tracer affinity values (EC50) were determined using the sigmoidal dose-response (variable slope). Competitive displacement data were then plotted and data were fit to determine the EC50 value for each example compound.
# T1 sequence (P31749 whole entry E17K): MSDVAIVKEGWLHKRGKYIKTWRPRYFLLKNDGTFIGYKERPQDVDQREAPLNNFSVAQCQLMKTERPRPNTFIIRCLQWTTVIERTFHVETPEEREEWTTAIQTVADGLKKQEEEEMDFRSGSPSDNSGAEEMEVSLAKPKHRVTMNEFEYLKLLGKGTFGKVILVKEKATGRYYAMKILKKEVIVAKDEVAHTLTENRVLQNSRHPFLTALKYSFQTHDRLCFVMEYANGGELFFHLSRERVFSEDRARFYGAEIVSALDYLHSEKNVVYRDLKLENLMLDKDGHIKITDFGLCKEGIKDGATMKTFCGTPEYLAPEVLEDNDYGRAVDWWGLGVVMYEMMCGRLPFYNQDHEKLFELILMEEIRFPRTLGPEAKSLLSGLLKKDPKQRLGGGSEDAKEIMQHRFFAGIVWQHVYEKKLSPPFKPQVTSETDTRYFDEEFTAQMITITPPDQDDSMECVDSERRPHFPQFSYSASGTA
row,IC50 [nM],SMILES
1,15 to 60,"N#CN1CCC2(CCN(Cc3ccc(-n4c(-c5cccnc5N)nc5ccc(-c6ccccc6)nc54)cc3)C2)C1 (stereo not drawn) [Example 19, 7-(4-(2-(2-Aminopyridin-3-yl)-5-phenyl-3H-imidazo[4,5-b]pyridin-3-yl)benzyl)-2,7-diazaspiro[4.4]nonane-2-carbonitrile]"
2,60 to 600,"N#CN1CCCC2(CCN(Cc3ccc(-n4c(-c5cccnc5N)nc5ccc(-c6ccccc6)nc54)cc3)CC2)C1 [Example 24, 9-(4-(2-(2-Aminopyridin-3-yl)-5-phenyl-3H-imidazo[4,5-b]pyridin-3-yl)benzyl)-2,9-diazaspiro[5.5]undecane-2-carbonitrile]"
3,60 to 600,"N#CN1C[C@H]2C[C@@H]1CN2Cc1ccc(-n2c(-c3cccnc3N)nc3ccc(-c4ccccc4)nc32)cc1 [Example 35, (1R,4R)-5-(4-(2-(2-Aminopyridin-3-yl)-5-phenyl-3H-imidazo[4,5-b]pyridin-3-yl)benzyl)-2,5-diazabicyclo[2.2.1]heptane-2-carbonitrile]"
4,15 to 60,"[2H]C([2H])([2H])N(C#N)C1CCN(Cc2ccc(-n3c(-c4cccnc4N)nc4ccc(-c5ccccc5)nc43)cc2)CC1 [Example 41, N-(1-(4-(2-(2-Aminopyridin-3-yl)-5-phenyl-3H-imidazo[4,5-b]pyridin-3-yl)benzyl)piperidin-4-yl)-N-(methyl-d3)cyanamide]"
5,< 15,"N#CN1CCC2(C1)CN(Cc1ccc(-n3c(-c4cccnc4N)nc4ccc(-c5ccccc5)nc43)cc1)C2 [Example 38, 2-(4-(2-(2-Aminopyridin-3-yl)-5-phenyl-3H-imidazo[4,5-b]pyridin-3-yl)benzyl)-2,6-diazaspiro[3.4]octane-6-carbonitrile]"
6,60 to 600,"N#CN1C2CCC1CN(Cc1ccc(-n3c(-c4cccnc4N)nc4ccc(-c5ccccc5)nc43)cc1)C2 [Example 28, 3-(4-(2-(2-Aminopyridin-3-yl)-5-phenyl-3H-imidazo[4,5-b]pyridin-3-yl)benzyl)-3,8-diazabicyclo[3.2.1]octane-8-carbonitrile]"
7,< 15,"N#CN[C@H]1CCN(Cc2ccc(-n3c(-c4cccnc4N)nc4ccc(-c5ccccc5)nc43)cc2)C1 [Example 7, (S)—N-(1-(4-(2-(2-Aminopyridin-3-yl)-5-phenyl-3H-imidazo[4,5-b]pyridin-3-yl)benzyl)pyrrolidin-3-yl)cyanamide]"
8,15 to 60,"N#CN1CC2(C1)CN(Cc1ccc(-n3c(-c4cccnc4N)nc4ccc(-c5ccccc5)nc43)cc1)C2 [Example 5, 6-(4-(2-(2-Aminopyridin-3-yl)-5-phenyl-3H-imidazo[4,5-b]pyridin-3-yl)benzyl)-2,6-diazaspiro[3.3]heptane-2-carbonitrile]"
9,15 to 60,"N#CN[C@@H]1CCCN(Cc2ccc(-n3c(-c4cccnc4N)nc4ccc(-c5ccccc5)nc43)cc2)C1 [Example 9, (R)—N-(1-(4-(2-(2-Aminopyridin-3-yl)-5-phenyl-3H-imidazo[4,5-b]pyridin-3-yl)benzyl)piperidin-3-yl)cyanamide]"
10,60 to 600,"C[C@H]1CN(Cc2ccc(-n3c(-c4cccnc4N)nc4ccc(-c5ccccc5)nc43)cc2)C[C@H](C)N1C#N [Example 25, (2S,6S)-4-(4-(2-(2-Aminopyridin-3-yl)-5-phenyl-3H-imidazo[4,5-b]pyridin-3-yl)benzyl)-2,6-dimethylpiperazine-1-carbonitrile]"
11,< 15,"N#CN[C@@H]1CCN(Cc2ccc(-n3c(-c4cccnc4N)nc4ccc(-c5ccccc5)nc43)cc2)C1 [Example 10, (R)—N-(1-(4-(2-(2-Aminopyridin-3-yl)-5-phenyl-3H-imidazo[4,5-b]pyridin-3-yl)benzyl)pyrrolidin-3-yl)cyanamide]"
12,< 15,"N#CNN1CCN(Cc2ccc(-n3c(-c4cccnc4N)nc4ccc(-c5ccccc5)nc43)cc2)CC1 [Example 42, N-(4-(4-(2-(2-Aminopyridin-3-yl)-5-phenyl-3H-imidazo[4,5-b]pyridin-3-yl)benzyl)piperazin-1-yl)cyanamide]"
